Assay results taken from PMC11344848, “Proximity-driven site-specific cyclization of phage-displayed peptides” (Nature Communications, 2024).

Assay: N-terminal-to-internal Cys bridging with heterobifunctional cyclopropenone-chloroacetamide linker (CCA): DTT reduction, cyclopropenone condensation with N-terminal Cys 1,2-aminothiol (1,4-thiazepan-5-one), then proximity-driven intramolecular thioether formation between internal Cys thiol and chloroacetamide
Settings: the molecule shown is the open-chain precursor, PBS pH 7.4, 5% DMSO, 0.01 mM, 25.0 °C, 2.0 h, 2 steps

Compound: N=C(N)NCCC[C@H](NC(=O)[C@@H]1CCCN1C(=O)[C@H](CS)NC(=O)[C@H](CC(N)=O)NC(=O)[C@H](CCC(N)=O)NC(=O)[C@H](Cc1ccccc1)NC(=O)[C@H](Cc1ccc(O)cc1)NC(=O)[C@@H]1CSCC(CCCC(=O)N2CCN(C(=O)CCl)CC2)C(=O)N1)C(=O)NCC(N)=O (stereo partly drawn) [H-CYFQNCPRG-NH2]
- ring closure, conversion by HPLC (31-membered ring): > 95%

Compound: H-CYKLAEGDKYYIC-[D1/D2 pIII fusion]
- ring closure, conversion by HPLC (52-membered ring): 100%

Compound: H-CGGSGGC-[WLAAA-D1/D2 pIII fusion]
- ring closure, conversion by HPLC (34-membered ring): 100%

Compound: H-CPEGYILDDGFCTDIDE-[D1/D2 pIII fusion]
- ring closure, conversion by HPLC (49-membered ring): 100%

Compound: H-CQPHPGQTC-[AAA-D1/D2 pIII fusion]
- ring closure, conversion by HPLC (40-membered ring): 100%

Compound: H-CGSGGSGC-[AAA-D1/D2 pIII fusion]
- ring closure, conversion by HPLC (37-membered ring): 100%
